As usually defined, the IC50 is the midpoint of a concentration-inhibition curve. Read a low IC50 as greater potency in that assay.

Each structure is given as a SMILES string.

For 43 compounds, IC50 results are on record in patent publication US20260132127A1, “NOVEL SPIRO COMPOUND” (MITSUBISHI TANABE PHARMA CORPORATION, priority 2021, published 2026).

This assay concerns the target T1, human TRH-DE (Homo sapiens, UniProt Q9UKU6).
T1 construct: expressed in transfected cells; host or cells: Expi 293 cells (transient expression), membrane fraction
T1 sequence (Q9UKU6 1-1069): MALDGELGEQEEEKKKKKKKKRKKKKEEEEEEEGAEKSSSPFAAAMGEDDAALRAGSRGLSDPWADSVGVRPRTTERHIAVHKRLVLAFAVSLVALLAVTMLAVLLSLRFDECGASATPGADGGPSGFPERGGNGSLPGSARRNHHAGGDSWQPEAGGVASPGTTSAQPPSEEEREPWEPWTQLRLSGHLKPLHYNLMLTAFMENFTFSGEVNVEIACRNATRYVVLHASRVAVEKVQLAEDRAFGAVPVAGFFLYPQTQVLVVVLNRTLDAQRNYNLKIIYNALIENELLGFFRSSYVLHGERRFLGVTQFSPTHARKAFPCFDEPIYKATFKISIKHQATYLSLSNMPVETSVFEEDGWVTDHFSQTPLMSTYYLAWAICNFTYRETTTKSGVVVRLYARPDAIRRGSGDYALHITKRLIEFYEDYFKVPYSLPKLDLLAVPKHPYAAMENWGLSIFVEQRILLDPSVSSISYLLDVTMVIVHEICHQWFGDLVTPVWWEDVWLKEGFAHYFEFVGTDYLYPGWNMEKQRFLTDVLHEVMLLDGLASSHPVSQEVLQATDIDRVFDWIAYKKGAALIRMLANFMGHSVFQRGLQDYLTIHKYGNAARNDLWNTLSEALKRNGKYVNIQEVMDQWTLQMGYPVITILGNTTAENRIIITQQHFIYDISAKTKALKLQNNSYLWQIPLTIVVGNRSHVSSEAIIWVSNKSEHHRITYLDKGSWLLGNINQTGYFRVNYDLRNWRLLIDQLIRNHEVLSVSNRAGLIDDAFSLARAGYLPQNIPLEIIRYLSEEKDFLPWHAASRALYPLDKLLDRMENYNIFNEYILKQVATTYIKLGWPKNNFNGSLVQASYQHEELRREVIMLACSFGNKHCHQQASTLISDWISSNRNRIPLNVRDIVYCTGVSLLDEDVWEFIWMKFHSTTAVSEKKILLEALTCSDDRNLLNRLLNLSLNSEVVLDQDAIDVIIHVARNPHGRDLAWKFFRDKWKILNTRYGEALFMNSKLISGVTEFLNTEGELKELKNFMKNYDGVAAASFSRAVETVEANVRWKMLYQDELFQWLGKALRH
Description: TRH-DE inhibition test (RapidFire MS measurement of product Cyclo (His-Pro)). Format: biochemical. The following applies: membrane fraction of Expi 293 cells expressing human TRH-DE; 10 μM TRH substrate; room temperature, 2 hours; 16-point concentration test. In short, it runs like this: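 Inhibition derived from product/internal-standard ratios of Cyclo(His-Pro), quantified by RapidFire triple-quadrupole MS after acetonitrile:methanol quench, with IC50 fitted over 16 concentrations. Enzyme source: membranes of Expi 293 cells transiently expressing human TRH-DE, 4 μg/ml, pH 7.4 phosphate buffer. Incubation with 10 μM substrate ran 2 h at room temperature.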

As to `C[C@@H]1COc2nc(N3C[C@H]4C[C@@H]3C4)ncc2C(=O)N1C1CC2(C1)CN(S(=O)(=O)c1ccccc1F)C2` [Example 403], the midpoint of inhibition, the IC50, lay at 3 nM.
For `C[C@@H]1COc2cc(N3CC[C@@H](F)C3)ncc2C(=O)N1C1CC2(C1)CN(S(=O)(=O)c1ccccc1F)C2` [Example 144] the value was 1 nM; for `C[C@@H]1Cn2ncc(C3CC3)c2C(=O)N1C1CC2(C1)CN(S(=O)(=O)c1ccccc1F)C2` [Example 326], 4 nM.
To `C[C@@H]1COc2nc(C(F)F)cnc2C(=O)N1C1CC2(C1)CN(S(=O)(=O)c1ccccc1F)C2` [Example 341, (7R)-3-(difluoromethyl)-8-[2-(2-fluorophenyl)sulfonyl-2-azaspiro[3.3]heptan-6-yl]-7-methyl-6,7-dihydropyrazino[2,3-f][1,4]oxazepin-9-one] belongs 5 nM.
To `Cc1cc2c(cn1)C(=O)N(C1CC3(C1)CN(S(=O)(=O)c1ccccc1F)C3)[C@H](C)CO2` [Example 312] belongs 2 nM; to `C[C@@H]1COc2nn(C3CC3)cc2C(=O)N1C1CC2(C1)CN(S(=O)(=O)c1ccccc1F)C2` [Example 210], 21 nM.
In turn, `C[C@@H]1CN(C(=O)C2CC2)c2cccnc2C(=O)N1C1CC2(C1)CN(S(=O)(=O)c1ccccc1F)C2` [Example 306] showed a 50% inhibitory concentration (IC50) of 56 nM.
To `C[C@@H]1COc2cc(C3CC3)ncc2C(=O)N1C1CC2(C1)CN(S(=O)(=O)c1ccccc1[N+](=O)[O-])C2` [Example 53] belongs 42 nM; to `Cc1noc2c1C(=O)N(C1CC3(C1)CN(S(=O)(=O)c1ccccc1F)C3)[C@H](C)CC2` [Example 105], 14 nM.
For `C[C@@H]1CNc2cc(C(F)(F)F)cnc2C(=O)N1C1CC2(C1)CN(S(=O)(=O)c1ccccc1F)C2` [Example 254] the value was 2 nM.
For `CC[C@@H]1COc2ncccc2C(=O)N1C1CC2(C1)CN(S(=O)(=O)c1ccccc1F)C2` [Example 39] the value was 20 nM.
As for `Cc1ncc2c(n1)OC[C@@H](C)N(C1CC3(C1)CN(S(=O)(=O)c1ccccc1F)C3)C2=O` [Example 318], it took 9 nM to reach half-maximal inhibition (IC50).
To `C[C@@H]1CCCCN1c1cc2c(cn1)C(=O)N(C1CC3(C1)CN(S(=O)(=O)c1ccccc1F)C3)[C@H](C)CO2` [Example 151] belongs 1 nM.
To `CCCCN(C)c1cc2c(cn1)C(=O)N(C1CC3(C1)CN(S(=O)(=O)c1ccccc1F)C3)[C@H](C)CO2` [Example 135] belongs 1 nM; to `C[C@@H]1CC[C@@H](C)N(C2CC3(C2)CN(S(=O)(=O)c2ccccc2F)C3)C(=O)C1` (racemic) [Example 437, (4R*,7R*)-1-[2-(2-fluorophenyl)sulfonyl-2-azaspiro[3.3]heptan-6-yl]-4,7-dimethylazepan-2-one], 292 nM.
For `C[C@@H]1CCc2nc(C3(C(F)(F)F)CC3)sc2C(=O)N1C1CC2(C1)CN(S(=O)(=O)c1ccccc1F)C2` [Example 97] the value was 3 nM; for `C[C@@H]1C=Cc2nc([C@@H]3C[C@@H]3F)sc2C(=O)N1C1CC2(C1)CN(S(=O)(=O)c1ccccc1F)C2` [Example 122], 15 nM; for `C[C@@H]1COc2nc(N3CCC4(CCOC4)C3)ncc2C(=O)N1C1CC2(C1)CN(S(=O)(=O)c1ccccc1F)C2` (mixture of isomers) [Example 405], 3 nM.
Regarding `CC1c2cc(F)cnc2C(=O)N1C1CC2(C1)CN(S(=O)(=O)c1ccccc1F)C2` (single isomer, unassigned) [Example 362], the IC50 was 182 nM.
To `CCC1c2ccccc2C(=O)N1C1CC2(C1)CN(S(=O)(=O)c1cc(C)ccc1F)C2` (racemic) [Example 273] belongs 63 nM; to `C[C@@H]1COc2nc(C3CC3)ncc2C(=O)N1C1CC2(C1)CN(S(=O)(=O)c1ccccc1F)C2` [Example 331, (7R)-2-cyclopropyl-6-[2-(2-fluorophenyl)sulfonyl-2-azaspiro[3.3]heptan-6-yl]-7-methyl-7,8-dihydropyrimido[5,4-f][1,4]oxazepin-5-one], 3 nM.
For `C[C@@H]1CNc2nc(C(F)(F)F)ccc2C(=O)N1C1CC2(C1)CN(S(=O)(=O)c1ccccc1F)C2` [Example 346, (3R)-4-[2-(2-fluorophenyl)sulfonyl-2-azaspiro[3.3]heptan-6-yl]-3-methyl-8-(trifluoromethyl)-2,3-dihydro-1H-pyrido[2,3-e][1,4]diazepin-5-one] the value was 2 nM; for `C[C@@H]1CN(C(=O)c2ccccc2)c2cccnc2C(=O)N1C1CC2(C1)CN(S(=O)(=O)c1ccccc1F)C2` [Example 308], 655 nM.
For `C[C@@H]1CCn2nc(C3CC3)c(F)c2C(=O)N1C1CC2(C1)CN(S(=O)(=O)c1ccccc1F)C2` [Example 197] the value was 13 nM; for `C[C@H]1COc2nc(C3(F)CC3)sc2C(=O)N1C1CC2(C1)CN(S(=O)(=O)c1ccccc1F)C2` [Example 182], 154 nM.
In turn, `CCC1COc2ccncc2C(=O)N1C1CC2(C1)CN(S(=O)(=O)c1ccccc1F)C2` (racemic) [Example 52] showed an IC50 of 22 nM.
In turn, `Cc1onc2c1C(=O)N(C1CC3(C1)CN(S(=O)(=O)c1ccccc1F)C3)[C@H](C)CO2` [Example 218] showed a concentration for half-maximal inhibition (IC50) of 37 nM.
For `CC1COc2ccsc2C(=O)N1C1CC2(C1)CN(S(=O)(=O)c1ccccc1F)C2` (racemic) [Example 64] the value was 10 nM.
To `CO[C@@H]1CCN(c2ncc3c(n2)OC[C@@H](C)N(C2CC4(C2)CN(S(=O)(=O)c2ccccc2F)C4)C3=O)C1` [Example 394] belongs 4 nM; to `COc1nc2c(cc1F)C(=O)N(C1CC3(C1)CN(S(=O)(=O)c1ccccc1F)C3)[C@H](C)CO2` [Example 167, (3R)-7-fluoro-4-[2-(2-fluorophenyl)sulfonyl-2-azaspiro[3.3]heptan-6-yl]-8-methoxy-3-methyl-2,3-dihydropyrido[3,2-f][1,4]oxazepin-5-one], 16 nM; to `Cc1nc2c(cc1F)C(=O)N(C1CC3(C1)CN(S(=O)(=O)c1ccccc1F)C3)[C@H](C)CO2` [Example 317], 3 nM.
To `CC1Cc2nc(C(F)(F)F)ccc2C(=O)N1C1CC2(C1)CN(S(=O)(=O)c1ccccc1F)C2` (racemic) [Example 67] belongs 77 nM.
As for `C[C@@H]1CCN2CCOC[C@@H]2C(=O)N1C1CC2(C1)CN(S(=O)(=O)c1ccccc1F)C2` [Example 172], inhibition was half-maximal at 110 nM (IC50).
To `Cc1ccc(F)c(S(=O)(=O)N2CC3(CC(N4C(=O)c5ccccc5C4C)C3)C2)c1` (racemic) [Example 272] belongs 101 nM.
To `C[C@@H]1COc2nc(N3CCOCC3)ncc2C(=O)N1C1CC2(C1)CN(S(=O)(=O)c1ccccc1F)C2` [Example 383] belongs 11 nM; to `C[C@@H]1CCn2nc(C3(F)CC3)cc2C(=O)N1C1CC2(C1)CN(S(=O)(=O)c1ccccc1F)C2` [Example 190], 11 nM.
To `C[C@@H]1CCn2c(nnc2C2CC2)C(=O)N1C1CC2(C1)CN(S(=O)(=O)c1ccccc1F)C2` [Example 261] belongs 28 nM; to `CC1CCc2nc(C3(F)CC3)sc2C(=O)N1C1CC2(C1)CN(S(=O)(=O)c1ccccc1F)C2` (racemic) [Example 94], 4 nM; to `C[C@@H]1CCN(S(C)(=O)=O)CC(=O)N1C1CC2(C1)CN(S(=O)(=O)c1ccccc1F)C2` [Example 455, (7R)-1-[2-(2-fluorophenyl)sulfonyl-2-azaspiro[3.3]heptan-6-yl]-7-methyl-4-methylsulfonyl-1,4-diazepan-2-one], 291 nM.
`Cc1ccc2c(n1)OC[C@@H](C)N(C1CC3(C1)CN(S(=O)(=O)c1ccccc1F)C3)C2=O` [Example 314] displayed a 50% inhibitory concentration (IC50) of 9 nM.
For `C[C@@H]1COc2nc(C3(F)CC3)sc2C(=O)N1C1CC2(C1)CN(S(=O)(=O)c1ccccc1F)C2` [Example 181] the value was 6 nM; for `CCN1C[C@@H](C)N(C2CC3(C2)CN(S(=O)(=O)c2ccccc2F)C3)C(=O)c2ncccc21` [Example 245, (3R)-1-ethyl-4-[2-(2-fluorophenyl)sulfonyl-2-azaspiro[3.3]heptan-6-yl]-3-methyl-2,3-dihydropyrido[3,2-e][1,4]diazepin-5-one], 2 nM; for `COc1cnc2c(n1)OC[C@@H](C)N(C1CC3(C1)CN(S(=O)(=O)c1ccccc1F)C3)C2=O` [Example 166], 5 nM.
